Experimental data taken from the NIST ThermoML archive (doi:10.1021/je700282w).
± gives the expanded uncertainty stated by the source.

Assay: activity coefficient (dimensionless); of the first substance listed, at infinite dilution; xn = mol fraction of the nth substance listed
Settings: 101 kPa, Liquid, Chromatography, x1 = 0

activity coefficient (303.15 K)	activity coefficient (313.15 K)	activity coefficient (323.15 K)	activity coefficient (333.15 K)	activity coefficient (343.15 K)	activity coefficient (353.15 K)	activity coefficient (363.15 K)	Compound
57 ± 5.7	52.9 ± 5.3	50.9 ± 5.1	47.9 ± 4.8	45.6 ± 4.5	43.9 ± 4.4	40.8 ± 4.1	CC(C)CC(C)(C)C [2,2,4-trimethylpentane] + CCCCn1cc[n+](C)c1.O=S(=O)([O-])C(F)(F)F
1.81 ± 0.18	1.82 ± 0.18	1.83 ± 0.18	1.84 ± 0.18	1.86 ± 0.18	1.87 ± 0.19	1.9 ± 0.19	c1ccccc1 [benzene] + CCCCn1cc[n+](C)c1.O=S(=O)([O-])C(F)(F)F
21.8 ± 2.2	20.5 ± 2	19.2 ± 1.9	18.1 ± 1.8	16.9 ± 1.7	15.5 ± 1.5	14.6 ± 1.4	C1CCCCC1 [cyclohexane] + CCCCn1cc[n+](C)c1.O=S(=O)([O-])C(F)(F)F
10.9 ± 1.1	10.4 ± 1	10.1 ± 1	9.69 ± 0.96	9.34 ± 0.93	9.15 ± 0.91	8.82 ± 0.88	C1=CCCCC1 [cyclohexene] + CCCCn1cc[n+](C)c1.O=S(=O)([O-])C(F)(F)F
897	709	576	483	409	348	306	CCCCCCCCCC [decane] + CCCCn1cc[n+](C)c1.O=S(=O)([O-])C(F)(F)F
4.62 ± 0.46	4.57 ± 0.46	4.54 ± 0.45	4.52 ± 0.45	4.5 ± 0.45	4.49 ± 0.45	4.47 ± 0.44	CCc1ccccc1 [ethylbenzene] + CCCCn1cc[n+](C)c1.O=S(=O)([O-])C(F)(F)F
56.7 ± 5.7	51.6 ± 5.2	48.5 ± 4.8	46 ± 4.6	43.3 ± 4.3	41.1 ± 4.1	38.8 ± 3.9	CCCCCCC [heptane] + CCCCn1cc[n+](C)c1.O=S(=O)([O-])C(F)(F)F
37.8 ± 3.8	35.7 ± 3.6	33.9 ± 3.4	32.1 ± 3.2	30.3 ± 3	29.1 ± 2.9	27.6 ± 2.8	CCCCCC [hexane] + CCCCn1cc[n+](C)c1.O=S(=O)([O-])C(F)(F)F
30.2 ± 3	28.5 ± 2.8	26.8 ± 2.7	25.4 ± 2.5	24.1 ± 2.4	22.9 ± 2.3	21.6 ± 2.1	CC1CCCCC1 [methylcyclohexane] + CCCCn1cc[n+](C)c1.O=S(=O)([O-])C(F)(F)F
122 ± 12	111 ± 11	103 ± 10	93.3 ± 9.3	88.2 ± 8.8	81.3 ± 8.1	75.9 ± 7.6	CCCCCCCCC [nonane] + CCCCn1cc[n+](C)c1.O=S(=O)([O-])C(F)(F)F
87.2 ± 8.7	79.9 ± 8	74.1 ± 7.4	68.3 ± 6.8	63.2 ± 6.3	60.3 ± 6	55.1 ± 5.5	CCCCCCCC [octane] + CCCCn1cc[n+](C)c1.O=S(=O)([O-])C(F)(F)F
26.5 ± 2.6	24.9 ± 2.5	23.9 ± 2.4	23.2 ± 2.3	22.2 ± 2.2	21.2 ± 2.1	19.9 ± 2	CCCCC [pentane] + CCCCn1cc[n+](C)c1.O=S(=O)([O-])C(F)(F)F
2.46 ± 0.24	2.48 ± 0.25	2.49 ± 0.25	2.51 ± 0.25	2.53 ± 0.25	2.54 ± 0.25	2.57 ± 0.26	C=Cc1ccccc1 [styrene] + CCCCn1cc[n+](C)c1.O=S(=O)([O-])C(F)(F)F

Compound	activity coefficient (303.15 K)	activity coefficient (313.15 K)	activity coefficient (323.15 K)	activity coefficient (333.15 K)	activity coefficient (343.15 K)	activity coefficient (353.15 K)	activity coefficient (363.15 K)
Cc1ccccc1C [1,2-dimethylbenzene] + CCCCn1cc[n+](C)c1.O=S(=O)([O-])C(F)(F)F	3.66 ± 0.36	3.67 ± 0.36	3.68 ± 0.37	3.7 ± 0.37	3.71 ± 0.37	3.76 ± 0.37	3.78 ± 0.38
Cc1cccc(C)c1 [1,3-dimethylbenzene] + CCCCn1cc[n+](C)c1.O=S(=O)([O-])C(F)(F)F	4.72 ± 0.47	4.66 ± 0.46	4.58 ± 0.46	4.47 ± 0.45	4.41 ± 0.44	4.33 ± 0.43	4.07 ± 0.41
Cc1ccc(C)cc1 [1,4-dimethylbenzene] + CCCCn1cc[n+](C)c1.O=S(=O)([O-])C(F)(F)F	4.3 ± 0.43	4.32 ± 0.43	4.33 ± 0.43	4.37 ± 0.43	4.41 ± 0.44	4.42 ± 0.44	4.42 ± 0.44
Cc1ccccc1 [toluene] + CCCCn1cc[n+](C)c1.O=S(=O)([O-])C(F)(F)F	2.72 ± 0.27	2.75 ± 0.27	2.78 ± 0.28	2.8 ± 0.28	2.83 ± 0.28	2.85 ± 0.28	2.88 ± 0.29
